# Test results taken from patent US20250122218A1, “MODULATORS OF CYSTIC FIBROSIS TRANSMEMBRANE CONDUCTANCE REGULATOR” (Vertex Pharmaceuticals Incorporated, priority 2022, published 2025).
# Biological target: T1, CFTR in F508del/MF-HBE cells (Homo sapiens, UniProt P13569, DEL508-508)
# T1 construct: human bronchial epithelial (HBE) cells derived from CF subjects heterozygous for F508del and a minimal function CFTR mutation; endogenous in cells; host or cells: primary human bronchial epithelial cells from CF subjects (F508del/MF-HBE)
# Experiment: Ussing chamber assay of CFTR-mediated short-circuit currents (identification of potentiator compounds)
# Type: cell-based
# Conditions: potentiator incubated 18-24 hours at 37° C. in combination with 10 μM corrector, in the presence of 20% human serum, CFTR-mediated ISC
# In short: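 F508del/MF-HBE cultures were preincubated 18-24 h at 37° C with potentiator plus 10 μM of a fixed corrector compound in 20% human serum; compounds were kept present during measurement. ISC was recorded under voltage clamp (0 mV, 37° C, amiloride apical) and taken as the 20 μM forskolin peak minus the current after inhibitor cocktail.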
# T1 sequence (P13569 with tags, fused parts or gaps DEL508-508): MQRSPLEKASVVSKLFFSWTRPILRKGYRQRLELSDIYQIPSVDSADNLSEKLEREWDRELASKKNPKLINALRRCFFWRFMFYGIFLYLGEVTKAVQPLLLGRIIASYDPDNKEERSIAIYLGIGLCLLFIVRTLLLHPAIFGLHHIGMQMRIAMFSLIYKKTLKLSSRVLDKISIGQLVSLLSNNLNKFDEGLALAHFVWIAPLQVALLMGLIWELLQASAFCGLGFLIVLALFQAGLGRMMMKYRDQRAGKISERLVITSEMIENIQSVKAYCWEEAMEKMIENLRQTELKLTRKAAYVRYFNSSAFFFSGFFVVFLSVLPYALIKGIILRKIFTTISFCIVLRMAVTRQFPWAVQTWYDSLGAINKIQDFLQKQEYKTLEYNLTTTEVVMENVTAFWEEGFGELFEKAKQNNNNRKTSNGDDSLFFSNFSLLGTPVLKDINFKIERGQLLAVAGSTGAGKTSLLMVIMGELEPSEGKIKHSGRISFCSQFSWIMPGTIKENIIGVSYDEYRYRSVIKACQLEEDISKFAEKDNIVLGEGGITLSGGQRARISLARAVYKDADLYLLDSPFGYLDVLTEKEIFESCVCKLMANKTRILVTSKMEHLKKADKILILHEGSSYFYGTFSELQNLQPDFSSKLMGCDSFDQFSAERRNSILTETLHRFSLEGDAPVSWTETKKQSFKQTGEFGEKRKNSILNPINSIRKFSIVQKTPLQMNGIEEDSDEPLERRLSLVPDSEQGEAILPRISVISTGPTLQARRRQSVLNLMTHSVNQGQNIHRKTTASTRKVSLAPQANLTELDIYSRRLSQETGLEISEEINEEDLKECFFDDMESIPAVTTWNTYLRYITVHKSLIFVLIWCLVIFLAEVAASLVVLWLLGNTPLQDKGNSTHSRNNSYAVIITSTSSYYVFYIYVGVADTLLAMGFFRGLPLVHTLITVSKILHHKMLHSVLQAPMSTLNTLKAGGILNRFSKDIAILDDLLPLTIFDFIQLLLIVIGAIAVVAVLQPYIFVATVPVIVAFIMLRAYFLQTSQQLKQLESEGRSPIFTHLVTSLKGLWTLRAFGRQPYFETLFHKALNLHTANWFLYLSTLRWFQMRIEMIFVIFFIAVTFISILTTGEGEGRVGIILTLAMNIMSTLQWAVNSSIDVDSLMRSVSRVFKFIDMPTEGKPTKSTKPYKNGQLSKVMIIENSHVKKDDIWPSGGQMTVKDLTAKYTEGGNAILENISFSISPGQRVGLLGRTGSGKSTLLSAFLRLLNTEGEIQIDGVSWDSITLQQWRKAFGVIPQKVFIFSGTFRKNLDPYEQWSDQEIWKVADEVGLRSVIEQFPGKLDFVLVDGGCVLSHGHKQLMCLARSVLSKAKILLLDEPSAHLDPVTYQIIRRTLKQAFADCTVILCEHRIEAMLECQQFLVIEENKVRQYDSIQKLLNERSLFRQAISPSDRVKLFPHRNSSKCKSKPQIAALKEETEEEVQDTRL
row,Compound,EC50
1,"Nc1cc(C(F)(F)F)c2nc1-c1nnc(o1)C(O)(C(F)(F)F)CCCCN(C1CC(F)(F)C1)C2=O (single isomer, unassigned) [Compound 199, 16-amino-11-(3,3-difluorocyclobutyl)-6-hydroxy-6,14-bis(trifluoromethyl)-18-oxa-3,4,11,17-tetrazatricyclo[11.3.1.12,5]octadeca-1(17),2,4,13,15-pentaen-12-one]",> 1000 nM
2,"Nc1cc(C(F)(F)F)c2nc1-c1nnc(o1)C(O)(C(F)(F)F)c1cc(ccc1F)CCCN(C1CC(F)(F)C1)C2=O (single isomer, unassigned) [Compound 202, 20-amino-15-(3,3-difluorocyclobutyl)-8-fluoro-6-hydroxy-6,18-bis(trifluoromethyl)-23-oxa-3,4,15,21-tetraazatetracyclo [15.3.1.12,5.17,11] tricosa 1(21),2,4,7(22),8,10, 17,19-octaen-16-one]",< 500 nM
3,"Nc1cc(C(F)(F)F)c2nc1-c1nnc(o1)C(O)(C(F)(F)F)c1cc(ccc1F)CCCN(C1CC(F)(F)C1)C2=O (single isomer, unassigned) [Compound 203, 20-amino-15-(3,3-difluorocyclobutyl)-8-fluoro-6-hydroxy-6,18-bis(trifluoromethyl)-23-oxa-3,4,15,21-tetraazatetracyclo [15.3.1.12,5.17,11] tricosa 1(21),2,4,7(22),8,10, 17,19-octaen-16-one]",< 500 nM
4,"CC(C)N1CCCCCC(O)(C(F)(F)F)C2=NN=C(O2)c2nc(c(C(F)(F)F)cc2N)C1=O (single isomer, unassigned) [Compound 204, 17-amino-6-hydroxy-12-isopropyl-6,15-bis(trifluoromethyl)-19-oxa-3,4,12,18-tetrazatricyclo [12.3.1.12,5] nonadeca-1(18),2,4,14,16-pentaen-13-one]",< 500 nM
5,"CC(C)N1CCCCCC(O)(C(F)(F)F)C2=NN=C(O2)c2nc(c(C(F)(F)F)cc2N)C1=O (single isomer, unassigned) [Compound 205, 17-amino-6-hydroxy-12-isopropyl-6,15-bis(trifluoromethyl)-19-oxa-3,4,12,18-tetrazatricyclo [12.3.1.12,5] nonadeca-1(18),2,4,14,16-pentaen-13-one]",> 1000 nM
6,"CC(C)(C)c1ccc(C2(N3CCCCCC(O)(C(F)(F)F)C4=NN=C(O4)c4nc(c(C(F)(F)F)cc4N)C3=O)CC2)cc1 (single isomer, unassigned) [Compound 227, 17-amino-12-[1-(4-tert-butylphenyl)cyclo-propyl]-6-hydroxy-6,15-bis(trifluoromethyl)-19-oxa-3,4,12,18-tetrazatricyclo [12.3.1.12,5] nonadeca-1(18),2,4,14,16-pentaen-13-one]",< 500 nM
7,"CC(C)(C)c1ccc(C2(N3CCCCCC(O)(C(F)(F)F)C4=NN=C(O4)c4nc(c(C(F)(F)F)cc4N)C3=O)CC2)cc1 (single isomer, unassigned) [Compound 228, 17-amino-12-[1-(4-tert-butylphenyl)cyclo-propyl]-6-hydroxy-6,15-bis(trifluoromethyl)-19-oxa-3,4,12,18-tetrazatricyclo [12.3.1.12,5] nonadeca-1(18),2,4,14,16-pentaen-13-one]",< 500 nM
8,"CC(C)CN1CCCCC(O)(C(F)(F)F)C2=NN=C(O2)c2nc(c(C(F)(F)F)cc2N)C1=O (single isomer, unassigned) [Compound 232, 16-amino-6-hydroxy-11-isobutyl-6,14-bis(trifluoromethyl)-18-oxa-3,4,11,17-tetrazatricyclo [11.3.1.12,5] octadeca-1(17),2,4,13,15-pentaen-12-one]",< 500 nM
9,"CC(C)CN1CCCCC(O)(C(F)(F)F)C2=NN=C(O2)c2nc(c(C(F)(F)F)cc2N)C1=O (single isomer, unassigned) [Compound 233, 16-amino-6-hydroxy-11-isobutyl-6,14-bis(trifluoromethyl)-18-oxa-3,4,11,17-tetrazatricyclo [11.3.1.12,5] octadeca-1(17),2,4,13,15-pentaen-12-one]",< 500 nM
10,"Nc1cc(C(F)(F)F)c2nc1-c1nnc(o1)C(O)(C(F)(F)F)CCCCNC2=O (single isomer, unassigned) [Compound 249, 16-amino-6-hydroxy-6,14-bis(trifluoromethyl)-18-oxa-3,4,11,17-tetrazatricyclo [11.3.1.12,5] octadeca-1(17),2,4,13,15-pentaen-12-one]",< 500 nM

# Now from value to compound:
row,EC50,Compound
1,< 500 nM,"Nc1cc(C(F)(F)F)c2nc1-c1nnc(o1)C(O)(C(F)(F)F)CCCCCN(CC(F)(F)F)C2=O (single isomer, unassigned) [Compound 206, 17-amino-6-hydroxy-12-(2,2,2-trifluoroethyl)-6,15-bis(trifluoromethyl)-19-oxa-3,4,12,18-tetrazatricyclo [12.3.1.12,5] nonadeca-1(18),2,4,14,16-pentaen-13-one]"
2,> 1000 nM,"Nc1cc(C(F)(F)F)c2nc1-c1nnc(o1)C(O)(C(F)(F)F)CCCCCN(CC(F)(F)F)C2=O (single isomer, unassigned) [Compound 207, 17-amino-6-hydroxy-12-(2,2,2-trifluoroethyl)-6,15-bis(trifluoromethyl)-19-oxa-3,4,12,18-tetrazatricyclo [12.3.1.12,5] nonadeca-1(18),2,4,14,16-pentaen-13-one]"
3,< 500 nM,"Nc1cc(C(F)(F)F)c2nc1-c1nnc(o1)C(O)(C(F)(F)F)CCCCN(Cc1ccc(OC(F)(F)F)cc1)C2=O (single isomer, unassigned) [Compound 234, 16-amino-6-hydroxy-11-[[4-(trifluoromethoxy)phenyl]methyl]-6,14-bis(trifluoromethyl)-18-oxa-3,4,11,17-tetrazatricyclo [11.3.1.12,5] octadeca-1(17),2,4,13,15-pentaen-12-one]"
4,< 500 nM,"Nc1cc(C(F)(F)F)c2nc1-c1nnc(o1)C(O)(C(F)(F)F)CCCCN(Cc1ccc(OC(F)(F)F)cc1)C2=O (single isomer, unassigned) [Compound 235, 16-amino-6-hydroxy-11-[[4-(trifluoromethoxy)phenyl]methyl]-6,14-bis(trifluoromethyl)-18-oxa-3,4,11,17-tetrazatricyclo [11.3.1.12,5] octadeca-1(17),2,4,13,15-pentaen-12-one]"
5,< 500 nM,"Nc1cc(C(F)(F)F)c2nc1-c1nnc(o1)C(O)(C(F)(F)F)CCCCCN(Cc1ccc(Br)cc1)C2=O (single isomer, unassigned) [Compound 236, 17-amino-12-[(4-bromophenyl)methyl]-6-hydroxy-6,15-bis(trifluoromethyl)-19-oxa-3,4,12,18-tetrazatricyclo [12.3.1.12,5] nonadeca-1(18),2,4,14,16-pentaen-13-one]"
6,< 500 nM,"Nc1cc(C(F)(F)F)c2nc1-c1nnc(o1)C(O)(C(F)(F)F)CCCCN(Cc1ccccc1)C2=O (single isomer, unassigned) [Compound 238, 16-amino-11-benzyl-6-hydroxy-6,14-bis(trifluoromethyl)-18-oxa-3,4,11,17-tetrazatricyclo [11.3.1.12,5] octadeca-1(17),2,4,13,15-pentaen-12-one]"
7,< 500 nM,"Nc1cc(C(F)(F)F)c2nc1-c1nnc(o1)C(O)(C(F)(F)F)CCCCN(Cc1ccccc1)C2=O (single isomer, unassigned) [Compound 239, 16-amino-11-benzyl-6-hydroxy-6,14-bis(trifluoromethyl)-18-oxa-3,4,11,17-tetrazatricyclo [11.3.1.12,5] octadeca-1(17),2,4,13,15-pentaen-12-one]"
